The target in this test is T1, Human recombinant PTP-1B (Homo sapiens, UniProt P18031).
T1 construct: Human recombinant PTP-1B, containing amino acids 1-321, fused to GST enzyme; GST (glutathione S-transferase)
T1 sequence (P18031 1-321): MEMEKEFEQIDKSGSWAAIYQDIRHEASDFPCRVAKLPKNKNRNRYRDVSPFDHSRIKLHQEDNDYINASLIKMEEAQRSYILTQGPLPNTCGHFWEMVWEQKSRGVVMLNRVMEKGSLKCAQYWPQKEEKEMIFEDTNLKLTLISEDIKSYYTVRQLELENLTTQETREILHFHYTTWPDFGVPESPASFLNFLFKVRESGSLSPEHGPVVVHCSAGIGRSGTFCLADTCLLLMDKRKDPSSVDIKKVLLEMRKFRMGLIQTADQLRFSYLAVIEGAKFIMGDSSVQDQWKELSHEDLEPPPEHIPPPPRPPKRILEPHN
Kind of test: Assay for PTP-1B Activity (pNPP substrate). Type of test: biochemical. Conditions: human recombinant PTP-1B (1-321) GST fusion, 2 mM pNPP, pH 7.4, 30° C., 20 min; read-out: Activity Code (IC50 range). An excerpt: The activity of the compounds as modulators of protein tyrosine phosphatase, including PTP-1B, may be measured in standard assays (see, e.g., Examples 41 and 42). Briefly, the assay described herein employs human recombinant PTP-1B and a pNPP substrate in a rescue assay.
Assay for PTP-1B Activity
Enzyme: Human recombinant PTP-1B, containing amino acids 1-321, fused to GST enzyme (glutathione S-transferase) purified by affinity chromatography (Huyer et al, 1997, J. Biol. Chem., 272, 843-852).
pNPP: p-Nitrophenyl Phosphate (Calbiochem)
Assay Buffer: 50 mM HEPES (pH 7.4), 100 mM NaCl, 2 mM EDTA, 3 mM DTT
(5×) pNPP substrate: 10 mM pNPP in assay buffer
Enzyme: 1 mg/ml PTP1B (1-321), dilute 1:200 in assay buffer
Assay buffer: 50 mM HEPES (pH 7.4), 100 mM NaCl, 2 mM EDTA, 3 mM DTT
Enzyme dilution buffer: 50 mM HEPES (pH 7.4), 100 mM NaCl, 2 mM EDTA, 3 mM DTT
Substrate 198 mM p-Nitrophenyl Phosphate (pNPP) store at 4° C.
The assay was carried out at 30° C. in 96 well plates. The reaction mixture in 60 ul contained 50 mM HEPES (pH 7.4), 100 mM NaCl, 2 mM EDTA, 3 mM DTT, and 2 mM p-Nitrophenyl Phosphate (pNPP). 5 ul of the test compound (inhibitor) dissolved in DMSO or DMSO alone for control was added to each well and the plate was mixed for 2 min. The reaction was initiated by adding 20 ul of diluted PTP1B (5 ng/ul in 50 mM HEPES (pH 7.4), 100 mM NaCl, 2 mM EDTA, 3 mM DTT). After 20 min at 30° C., the enzyme reaction was terminated by adding 100 ul of 2 M K2CO3 to each well. The phosphatase activity was detected by using Victor II plate reader (Wallac) with absorbance detection at 405 nm. All the assays were done at least in duplicate. The initial rate of pNP is plotted against the concentration of inhibitor.
One may read the IC50 as the concentration needed to halve the response being measured. Take `CCOC(=O)n1cc(-c2ccc(S(C)(=O)=O)cc2)n(Cc2ccc(C(F)(F)P(=O)(O)O)c(Br)c2)c1=O` [Compound 1, 3-[3-Bromo-4-(difluoro-phosphono-methyl)-benzyl]-4-(4-methanesulfonyl-phenyl)-2-oxo-2,3-dihydro-imidazole-1-carboxylic acid ethyl ester]: the IC50 lay within 100 to 249 nM.
`O=C(O)c1ccc(-c2cn(Cc3ccccc3)c(=O)n2Cc2ccc(C(F)(F)P(=O)(O)O)c(Br)c2)cc1` [Compound 2, 4-{1-Benzyl-3-[3-bromo-4-(difluoro-phosphono-methyl)-benzyl]-2-oxo-2,3-dihydro-1H-imidazol-4-yl}-benzoic acid]: the IC50 lay within 250 to 2500 nM.
Consider `CS(=O)(=O)c1ccc(-c2c[nH]c(=O)n2Cc2ccc(C(F)(F)P(=O)(O)O)c(Br)c2)cc1` [Compound 3, ({2-Bromo-4-[5-(4-methanesulfonyl-phenyl)-2-oxo-2,3-dihydro-imidazol-1-ylmethyl]-phenyl}-difluoro-methyl)-phosphonic acid], for which the IC50 was 250 to 2500 nM.
Turning to `Cn1cc(-c2ccc(S(C)(=O)=O)cc2)n(Cc2ccc(C(F)(F)P(=O)(O)O)c(Br)c2)c1=O` [Compound 4, ({2-Bromo-4-[5-(4-methanesulfonyl-phenyl)-3-methyl-2-oxo-2,3-dihydro-imidazol-1-ylmethyl]-phenyl}-difluoro-methyl)-phosphonic acid], the IC50 is 100 to 249 nM.
For `COC(=O)c1ccc(-c2cn(Cc3ccccc3)c(=O)n2Cc2ccc(C(F)(F)P(=O)(O)O)c(Br)c2)cc1` [Compound 6, 4-{1-Benzyl-3-[3-bromo-4-(difluoro-phosphono-methyl)-benzyl]-2-oxo-2,3-dihydro-1H-imidazol-4-yl}-benzoic acid methyl ester], the IC50 fell in the range of 100 to 249 nM.
`O=C(O)c1ccc(-c2c[nH]c(=O)n2Cc2ccc(C(F)(F)P(=O)(O)O)c(Br)c2)cc1` [Compound 7, 4-{3-[3-Bromo-4-(difluoro-phosphono-methyl)-benzyl]-2-oxo-2,3-dihydro-1H-imidazol-4-yl}-benzoic acid]: the IC50 fell in the range of 250 to 2500 nM.
With `O=C(O)c1ccc(-c2cn(Cc3ccccc3)c(=O)n2Cc2ccc(C(F)(F)P(=O)(O)O)c(Cl)c2)cc1` [Compound 9, 4-{1-Benzyl-3-[3-chloro-4-(difluoro-phosphono-methyl)-benzyl]-2-oxo-2,3-dihydro-1H-imidazol-4-yl}-benzoic acid], the IC50 fell in the range of 250 to 2500 nM.
As to `COC(=O)c1ccc(-c2cn(Cc3ccccc3)c(=O)n2Cc2ccc(C(F)(F)P(=O)(O)O)c(Cl)c2)cc1` [Compound 10, 4-{1-Benzyl-3-[3-chloro-4-(difluoro-phosphono-methyl)-benzyl]-2-oxo-2,3-dihydro-1H-imidazol-4-yl}-benzoic acid methyl ester], the IC50 was in the range of 250 to 2500 nM.
As to `COC(=O)c1ccc(-c2cn(Cc3ccc(F)cc3)c(=O)n2Cc2ccc(C(F)(F)P(=O)(O)O)c(Br)c2)cc1` [Compound 11, 4-[3-[3-Bromo-4-(difluoro-phosphono-methyl)-benzyl]-1-(4-fluoro-benzyl)-2-oxo-2,3-dihydro-1H-imidazol-4-yl]-benzoic acid methyl ester], the concentration for half-maximal inhibition (IC50) lay within 100 to 249 nM.
On to `COC(=O)c1ccc(-c2cn(CCc3ccccc3)c(=O)n2Cc2ccc(C(F)(F)P(=O)(O)O)c(Br)c2)cc1` [Compound 12, 4-{3-[3-Bromo-4-(difluoro-phosphono-methyl)-benzyl]-2-oxo-1-phenethyl-2,3-dihydro-1H-imidazol-4-yl}-benzoic acid methyl ester], for which the IC50 lay in the range of 250 to 2500 nM.
As for `O=C(O)c1ccc(-c2cn(Cc3ccc(F)cc3)c(=O)n2Cc2ccc(C(F)(F)P(=O)(O)O)c(Br)c2)cc1` [Compound 13, 4-[3-[3-Bromo-4-(difluoro-phosphono-methyl)-benzyl]-1-(4-fluoro-benzyl)-2-oxo-2,3-dihydro-1H-imidazol-4-yl]-benzoic acid], the IC50 was 250 to 2500 nM.
